Results from ChEMBL document CHEMBL5584334, “Discovery of a Covalent Inhibitor of Pro-Caspase-1 Zymogen Blocking NLRP3 Inflammasome Activation and Pyroptosis” (J Med Chem, 2024).
The source made the active and inactive calls. The calls are words filed in the database; no cut-off is given here.

Experiments:
[1] = tested on: Mus musculus; assay: (§1) Anti-inflammatory activity in MSU/C18:0 free fatty acid induced ip dosed Casp1 knockout Kunming mouse model of gouty arthritis assessed as reduction in IL-beta production preadministered with compound for 30 mins followed by MSU/C18:0 free fatty acid injection and measured after 24 hrs by ELISA; type: functional, organism-based; settings: time 24.5 hrs
[2] = target: T1, Caspase-1 (Mus musculus) (UniProt P29452); assay: Irreversible binding affinity to caspase-1 in LPS-induced mouse J774.A1 cells assessed as reduction in IL-1beta level at 0.5 to 2 uM pretreated with LPS for 3 hrs followed by compound addition for 30 mins prior to compound washout then nigericin addition for 1 hr by ELISA; type: cell-based; settings: dose 0.5-2 µM
T1 sequence (whole entry): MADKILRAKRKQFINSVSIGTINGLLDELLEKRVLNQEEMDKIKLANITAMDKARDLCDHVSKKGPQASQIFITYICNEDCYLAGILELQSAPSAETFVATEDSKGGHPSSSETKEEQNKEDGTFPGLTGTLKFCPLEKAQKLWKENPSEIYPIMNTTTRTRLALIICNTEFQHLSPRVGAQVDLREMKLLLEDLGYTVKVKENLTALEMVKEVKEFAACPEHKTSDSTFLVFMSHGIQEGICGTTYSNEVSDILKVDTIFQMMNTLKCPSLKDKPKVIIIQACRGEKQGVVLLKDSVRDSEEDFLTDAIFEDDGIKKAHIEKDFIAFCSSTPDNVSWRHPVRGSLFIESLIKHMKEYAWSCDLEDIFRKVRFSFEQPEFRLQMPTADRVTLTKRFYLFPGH

[3] = tested on: Caspase-1 (Homo sapiens), P29466 [C244A]; assay: Inhibition of recombinant caspase-1 C244A mutant (unknown origin) at 100 uM relative to control
[4] = target: T2, Caspase-7 (Mus musculus) (UniProt P97864); assay: Inhibition of cisplatin induced caspase-7 activation in mouse J774.A1 cells at 2 uM preincubated for 30 mins followed by cisplatin addition and incubated overnight; type: cell-based
T2 sequence (whole entry): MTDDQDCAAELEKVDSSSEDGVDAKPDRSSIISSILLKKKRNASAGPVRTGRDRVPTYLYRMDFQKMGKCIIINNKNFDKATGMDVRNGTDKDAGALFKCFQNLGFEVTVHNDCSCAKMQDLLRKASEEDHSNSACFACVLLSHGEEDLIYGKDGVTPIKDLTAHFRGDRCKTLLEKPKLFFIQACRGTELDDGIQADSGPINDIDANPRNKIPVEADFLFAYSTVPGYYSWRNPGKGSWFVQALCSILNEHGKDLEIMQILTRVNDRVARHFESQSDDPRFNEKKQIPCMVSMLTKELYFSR

[5] = target: NACHT, LRR and PYD domains-containing protein 3 (Mus musculus) (UniProt Q8R4B8); assay: Inhibition of NLRP3 inflammasome activation in LPS/ATP stimulated mouse J774.A1 cells assessed as reduction in IL-1beta production incubated for 30 mins by ELISA; type: cell-based
[6] = tested on: THP-1; assay: Effect on pro-1L-1beta protein expression in LPS/MSU stimulated human THP-1 cells supernatant by Western blotting analysis; type: functional, cell-based
[7] = species on record: Mus musculus; assay: Inhibition of pain perception in MSU/C18:0 free fatty acid induced wild type mouse measured upto 24 hrs; type: functional, organism-based
[8] = tested on: THP-1; assay: Effect on pro-1L-1beta protein expression in LPS/nigericin stimulated human THP-1 cells supernatant at 0.5 to 2 uM by Western blotting analysis; type: functional, cell-based; settings: dose 0.5-2 µM
[9] = tested on: Mus musculus; assay: as §1, with “induced” for “induced ip dosed Casp1 knockout”, “NLRP3 expression at 5 to 20 mg/kg, ip” for “in IL-beta production”, “Western blotting analysis” for “ELISA”; type: functional, organism-based; settings: dose 5-20 mg/kg, time 24.5 hrs
[10] = target: T3, Caspase-1 (Homo sapiens) (UniProt P29466); assay: Inhibition of recombinant human caspase-1 expressed in Escherichia coli BL21 cells assessed as remaining activity at 10 uM using […] as substrate incubated for 30 mins relative to control
T3 sequence (whole entry): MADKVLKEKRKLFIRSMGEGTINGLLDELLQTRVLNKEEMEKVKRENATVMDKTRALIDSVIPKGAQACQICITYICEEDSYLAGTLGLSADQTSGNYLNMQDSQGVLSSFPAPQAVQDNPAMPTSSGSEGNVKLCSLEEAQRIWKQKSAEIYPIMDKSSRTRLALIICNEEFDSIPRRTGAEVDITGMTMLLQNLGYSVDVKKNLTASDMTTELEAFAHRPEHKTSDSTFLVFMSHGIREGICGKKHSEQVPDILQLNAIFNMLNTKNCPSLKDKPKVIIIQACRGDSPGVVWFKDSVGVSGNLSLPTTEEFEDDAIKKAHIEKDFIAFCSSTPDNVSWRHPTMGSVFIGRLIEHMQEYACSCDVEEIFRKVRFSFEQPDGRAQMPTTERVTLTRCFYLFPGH

[11] = tested on: Mus musculus; assay: Anti-inflammatory activity in LPS/MSU-induced C57BL/6 mouse model of acute peritonitis assessed as reduction in IL-1beta expression at 20 mg/kg, ip preadministered intraperitoneally with compound for 30 mins followed by MSU injection and measured after 6 hrs by ELISA; type: functional, organism-based; settings: time 6.5 hrs
[12] = tested on: HEK293T; assay: Inhibition of recombinant caspae-1 C285A mutant (unknown origin) to GSDMD (unknown origin) interaction expressed in HEK293T cells; type: cell-based; settings: Homo sapiens
[13] = tested on: THP-1; assay: Inhibition of p20 fragment of IL-1beta protein expression in LPS/nigericin stimulated human THP-1 cells supernatant at 0.5 to 2 uM by Western blotting analysis; type: functional, cell-based; settings: dose 0.5-2 µM
[14] = Acute toxicity in Kunming mouse assessed as change in LDH level at 100 mg/kg, ip administered for 14 days; type: organism-based; settings: in vivo, 336 h, time 14 day
[15] = tested on: HEK293T; assay: Inhibition of recombinant caspae-1 C244A mutant (unknown origin) to GSDMD (unknown origin) interaction expressed in HEK293T cells; type: cell-based; settings: Homo sapiens
[16] = tested on: Mus musculus; assay: Anti-inflammatory activity in MSU/C18:0 free fatty acid induced Kunming mouse model of gouty arthritis assessed as effect on pro-caspase-1 expression at 5 to 20 mg/kg, ip preadministered with compound for 30 mins followed by MSU/C18:0 free fatty acid injection and measured after 24 hrs by Western blotting analysis; type: functional, organism-based; settings: dose 5-20 mg/kg, time 24.5 hrs
[17] = tested on: J774.A1; assay: Inhibition of pyroptosis in mouse J774.A1 cells assessed as reduction in number of propidium iodide positive cells at 0.5 to 2 uM pretreated with LPS for 3 hrs followed by compound addition in presence of nigericin by flow cytometry analysis; type: functional, cell-based; settings: dose 0.5-2 µM
[18] = tested on: J774.A1; assay: Downregulation of p65 phosphorylation in mouse J774.A1 cells at 0.5 to 2 uM preincubated for 30 mins followed by LPS addition and measured after 2 hrs by Western blotting analysis; type: functional, cell-based; settings: dose 0.5-2 µM, time 2.5 hrs
[19] = target: NACHT, LRR and PYD domains-containing protein 3 (Mus musculus) (UniProt Q8R4B8); assay: Inhibition of NLRP3 inflammasome activation in LPS/MSU stimulated mouse J774.A1 cells assessed as reduction in IL-1beta production incubated for 4 hrs by ELISA; type: cell-based
[20] = tested on: THP-1; assay: Effect on pro-caspase 1 protein expression in LPS/nigericin stimulated human THP-1 cells supernatant at 0.5 to 2 uM by Western blotting analysis; type: functional, cell-based; settings: dose 0.5-2 µM
[21] = tested on: THP-1; assay: Inhibition of p20 fragment of IL-1beta protein expression in LPS/MSU stimulated human THP-1 cells supernatant by Western blotting analysis; type: functional, cell-based

Chain of NACHT, LRR and PYD domains-containing protein 3 (Mus musculus) (Q8R4B8 whole entry, the tested form may be a part): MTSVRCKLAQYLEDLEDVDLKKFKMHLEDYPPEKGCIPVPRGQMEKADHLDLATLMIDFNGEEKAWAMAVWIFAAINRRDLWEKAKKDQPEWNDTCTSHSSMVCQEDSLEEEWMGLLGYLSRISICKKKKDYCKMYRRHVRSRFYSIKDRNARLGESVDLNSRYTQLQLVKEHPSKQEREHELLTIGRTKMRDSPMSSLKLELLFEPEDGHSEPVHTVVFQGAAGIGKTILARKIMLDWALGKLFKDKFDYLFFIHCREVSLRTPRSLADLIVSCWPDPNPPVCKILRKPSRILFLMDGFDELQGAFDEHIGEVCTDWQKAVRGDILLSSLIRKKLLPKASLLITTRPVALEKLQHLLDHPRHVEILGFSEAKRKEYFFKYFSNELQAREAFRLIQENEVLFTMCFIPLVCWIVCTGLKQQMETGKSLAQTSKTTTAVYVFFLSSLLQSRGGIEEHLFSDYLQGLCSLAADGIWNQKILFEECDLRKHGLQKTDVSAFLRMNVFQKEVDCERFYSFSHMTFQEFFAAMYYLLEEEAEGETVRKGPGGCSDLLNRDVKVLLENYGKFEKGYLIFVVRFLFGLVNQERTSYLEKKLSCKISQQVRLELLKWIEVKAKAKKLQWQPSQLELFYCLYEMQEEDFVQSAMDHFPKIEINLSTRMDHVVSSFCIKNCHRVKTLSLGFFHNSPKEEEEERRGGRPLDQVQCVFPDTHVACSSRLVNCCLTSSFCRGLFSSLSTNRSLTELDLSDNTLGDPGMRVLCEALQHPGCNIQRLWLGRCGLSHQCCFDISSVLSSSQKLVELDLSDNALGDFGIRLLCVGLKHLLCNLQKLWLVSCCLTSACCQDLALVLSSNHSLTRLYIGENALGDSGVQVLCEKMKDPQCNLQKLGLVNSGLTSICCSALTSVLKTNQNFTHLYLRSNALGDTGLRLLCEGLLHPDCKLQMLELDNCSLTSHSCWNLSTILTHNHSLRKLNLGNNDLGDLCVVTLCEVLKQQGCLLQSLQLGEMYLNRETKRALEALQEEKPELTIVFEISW
Chain of Caspase-1 (Homo sapiens), P29466 [C244A] (P29466 whole entry C244A): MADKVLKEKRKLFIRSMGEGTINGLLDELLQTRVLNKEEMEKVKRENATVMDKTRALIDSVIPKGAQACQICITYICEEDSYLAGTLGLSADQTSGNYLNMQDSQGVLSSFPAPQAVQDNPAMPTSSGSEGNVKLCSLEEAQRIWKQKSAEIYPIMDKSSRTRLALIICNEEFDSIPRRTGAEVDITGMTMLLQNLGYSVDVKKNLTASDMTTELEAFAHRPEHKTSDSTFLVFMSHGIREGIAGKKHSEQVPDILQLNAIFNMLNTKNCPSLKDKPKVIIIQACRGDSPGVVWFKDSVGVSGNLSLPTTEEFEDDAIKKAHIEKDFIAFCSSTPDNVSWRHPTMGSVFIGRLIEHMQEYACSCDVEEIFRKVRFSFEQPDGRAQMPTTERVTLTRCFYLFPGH

## COc1ccc2c(c1)[C@]1(C=C[C@H](N=C=S)C[C@H]1C(=O)OC(C)(C)C)C(=O)N2C(=O)OCc1ccccc1
[1]
  Activity: inactive
[2]
  Activity: Active
[3]
  inhibition: inactive
[4]
  inhibition: inactive
[5]
  inhibition: Active
[6]
  Activity: inactive
[7]
  inhibition: Active
[8]
  Activity: inactive
[9]
  Activity: Active
[10]
  Activity: 31%
[11]
  Activity: Active
[12]
  inhibition: inactive
[13]
  inhibition: Active
[14]
  Activity: Non-Toxic
[15]
  inhibition: Active
[16]
  Activity: inactive
[17]
  inhibition: Active
[18]
  Activity: Active
[19]
  inhibition: Active
[20]
  Activity: inactive
[21]
  inhibition: Active
